# Measured values taken from patent publication US20130022558A1, “Methods For Imrproving the Appearance of Hyperpigmented Spot(s) and Skin Tone” (priority 2011, published 2013).
# Test system: hyperpigmented spots on facial skin
# Experiment: In vivo testing for hyperpigmented spot reduction (melanin Spot Area Fraction, split face, image analysis)
# Parameters: species or system human subjects
# Settings: baseline to Week 8, Beijing, approx. January 21 to March 21; compared to the vehicle
# Description: The 270 subjects were screened according to inclusion/exclusion criteria which included the following:
# Is willing to refrain from sun exposure by using supplied UV lotion and physical UV blocks, such as a hat, to avoid facial sunburn, tanning or wind burn.
# • 1. […] Two hundred and seventy subjects were recruited for the study.
compound,measurement,value
"NC(=O)c1cccnc1 [naicinamide, niacinamide]","effect on seasonal skin darkening, in words",mitigated the effects of seasonal skin darkening
